From the kinase profiling compilation of Christmann-Franck et al. (2016)

What was measured:
Assay in all cases: KINOMEscan competition binding
Settings in all cases: compound 10.0 µM
ABL2 (human) = ABL2 (human) (UniProt P42684)
ACVR1B (human) = ACVR1B (human) (UniProt P36896)
ACVRL1 (human) = ACVRL1 (human) (UniProt P37023)
ADCK3 (human) = ADCK3 (human) (UniProt Q8NI60)
BRSK1 (human) = BRSK1 (human) (UniProt Q8TDC3)
CAMK2D (human) = CAMK2D (human) (UniProt Q13557)
CDC42BPA (human) = CDC42BPA (human) (UniProt Q5VT25)
CDC42BPG (human) = CDC42BPG (human) (UniProt Q6DT37)
CDK18 (human) = CDK18 (human) (UniProt Q07002)
CSNK1A1 (human) = CSNK1A1 (human) (UniProt P48729)
CSNK1D (human) = CSNK1D (human) (UniProt P48730)
CSNK2A1 (human) = CSNK2A1 (human) (UniProt P68400)
DAPK2 (human) = DAPK2 (human) (UniProt Q9UIK4)
DAPK2 (human), sequence (Q9UIK4 whole entry, looked up): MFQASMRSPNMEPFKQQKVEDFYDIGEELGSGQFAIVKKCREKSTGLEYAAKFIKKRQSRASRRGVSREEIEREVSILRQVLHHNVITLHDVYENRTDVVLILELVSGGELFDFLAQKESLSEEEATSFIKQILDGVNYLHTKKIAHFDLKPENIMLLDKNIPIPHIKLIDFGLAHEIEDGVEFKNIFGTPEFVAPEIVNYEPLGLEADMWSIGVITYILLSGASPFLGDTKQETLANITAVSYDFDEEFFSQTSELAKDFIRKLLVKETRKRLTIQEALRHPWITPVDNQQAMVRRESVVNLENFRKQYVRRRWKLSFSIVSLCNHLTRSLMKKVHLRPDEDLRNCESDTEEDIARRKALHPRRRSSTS

DDR1 (human) = DDR1 (human) (UniProt Q08345)
FGFR3 (human) = FGFR3 (human) (UniProt P22607)
[1] = system: FGFR3 (human), P22607 [G697C]
FGFR4 (human) = FGFR4 (human) (UniProt P22455)
FLT3 (human) = FLT3 (human) (UniProt P36888)
FYN (human) = FYN (human) (UniProt P06241)
FYN (human), sequence (P06241 whole entry, looked up): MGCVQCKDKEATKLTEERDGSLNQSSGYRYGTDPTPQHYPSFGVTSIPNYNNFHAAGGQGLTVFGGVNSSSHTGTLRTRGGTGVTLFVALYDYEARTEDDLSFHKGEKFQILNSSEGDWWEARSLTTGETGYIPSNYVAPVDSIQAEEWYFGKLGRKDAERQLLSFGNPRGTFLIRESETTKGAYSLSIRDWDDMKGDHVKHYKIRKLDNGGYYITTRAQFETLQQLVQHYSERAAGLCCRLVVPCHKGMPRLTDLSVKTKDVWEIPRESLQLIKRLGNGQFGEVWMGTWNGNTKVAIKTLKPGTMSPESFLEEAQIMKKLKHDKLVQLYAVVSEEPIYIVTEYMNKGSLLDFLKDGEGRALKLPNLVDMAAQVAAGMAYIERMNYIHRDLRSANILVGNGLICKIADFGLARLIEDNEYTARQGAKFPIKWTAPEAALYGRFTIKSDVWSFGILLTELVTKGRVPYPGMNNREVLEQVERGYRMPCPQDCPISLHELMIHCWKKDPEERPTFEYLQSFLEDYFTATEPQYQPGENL

GRK7 (human) = GRK7 (human) (UniProt Q8WTQ7)
LYN (human) = LYN (human) (UniProt P07948)
MAP4K3 (human) = MAP4K3 (human) (UniProt Q8IVH8)
MELK (human) = MELK (human) (UniProt Q14680)
MKNK2 (human) = MKNK2 (human) (UniProt Q9HBH9)
MUSK (human) = MUSK (human) (UniProt O15146)
MYO3A (human) = MYO3A (human) (UniProt Q8NEV4)
MYO3A (human), sequence (Q8NEV4 whole entry, looked up): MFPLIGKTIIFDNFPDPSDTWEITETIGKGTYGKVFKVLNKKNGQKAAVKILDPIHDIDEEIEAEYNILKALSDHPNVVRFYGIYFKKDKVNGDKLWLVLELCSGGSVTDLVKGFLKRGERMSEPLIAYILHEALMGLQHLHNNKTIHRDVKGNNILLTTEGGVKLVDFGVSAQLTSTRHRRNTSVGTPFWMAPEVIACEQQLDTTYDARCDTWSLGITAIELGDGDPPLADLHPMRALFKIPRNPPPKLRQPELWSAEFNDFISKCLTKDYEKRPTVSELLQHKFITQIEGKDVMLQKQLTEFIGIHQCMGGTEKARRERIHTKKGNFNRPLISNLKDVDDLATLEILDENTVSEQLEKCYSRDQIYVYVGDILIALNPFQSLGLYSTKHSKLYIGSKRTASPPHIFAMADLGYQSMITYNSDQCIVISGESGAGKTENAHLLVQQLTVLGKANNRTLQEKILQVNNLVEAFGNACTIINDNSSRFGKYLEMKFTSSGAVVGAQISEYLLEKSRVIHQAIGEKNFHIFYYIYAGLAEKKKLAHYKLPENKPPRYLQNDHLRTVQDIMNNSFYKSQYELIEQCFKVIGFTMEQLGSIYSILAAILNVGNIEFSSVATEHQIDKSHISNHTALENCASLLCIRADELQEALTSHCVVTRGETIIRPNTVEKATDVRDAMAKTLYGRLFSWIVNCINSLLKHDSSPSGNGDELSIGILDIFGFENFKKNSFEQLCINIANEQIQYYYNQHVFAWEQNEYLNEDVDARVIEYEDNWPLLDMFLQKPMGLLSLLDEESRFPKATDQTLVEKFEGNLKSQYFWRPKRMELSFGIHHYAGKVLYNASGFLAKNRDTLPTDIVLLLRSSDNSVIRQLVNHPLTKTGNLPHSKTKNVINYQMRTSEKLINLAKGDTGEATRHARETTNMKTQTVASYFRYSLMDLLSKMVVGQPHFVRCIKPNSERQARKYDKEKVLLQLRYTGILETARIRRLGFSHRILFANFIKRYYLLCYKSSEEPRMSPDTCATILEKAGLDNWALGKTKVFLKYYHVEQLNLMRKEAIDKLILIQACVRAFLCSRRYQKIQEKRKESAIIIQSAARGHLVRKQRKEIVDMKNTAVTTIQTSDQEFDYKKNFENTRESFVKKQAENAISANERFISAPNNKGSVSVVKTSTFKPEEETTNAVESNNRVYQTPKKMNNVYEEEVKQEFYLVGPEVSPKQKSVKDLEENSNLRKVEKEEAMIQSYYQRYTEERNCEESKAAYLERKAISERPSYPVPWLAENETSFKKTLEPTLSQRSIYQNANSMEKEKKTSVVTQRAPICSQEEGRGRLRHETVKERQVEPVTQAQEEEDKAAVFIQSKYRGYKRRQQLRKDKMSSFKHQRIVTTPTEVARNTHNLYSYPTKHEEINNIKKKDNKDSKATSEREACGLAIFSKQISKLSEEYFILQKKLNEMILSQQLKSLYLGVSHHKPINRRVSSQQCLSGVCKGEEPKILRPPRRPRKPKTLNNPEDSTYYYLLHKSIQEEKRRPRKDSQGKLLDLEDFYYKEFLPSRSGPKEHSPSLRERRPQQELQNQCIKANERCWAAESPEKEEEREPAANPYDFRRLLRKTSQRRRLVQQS

NEK6 (human) = NEK6 (human) (UniProt Q9HC98)
PKN1 (human) = PKN1 (human) (UniProt Q16512)
PLK2 (human) = PLK2 (human) (UniProt Q9NYY3)
PRKAA2 (human) = PRKAA2 (human) (UniProt P54646)
PRKACA (human) = PRKACA (human) (UniProt P17612)
RIPK2 (human) = RIPK2 (human) (UniProt O43353)
RPS6KA2 KD1 (human) = RPS6KA2 KD1 (human) (UniProt Q15349)
RPS6KA2 KD1 (human), sequence (Q15349 whole entry, looked up): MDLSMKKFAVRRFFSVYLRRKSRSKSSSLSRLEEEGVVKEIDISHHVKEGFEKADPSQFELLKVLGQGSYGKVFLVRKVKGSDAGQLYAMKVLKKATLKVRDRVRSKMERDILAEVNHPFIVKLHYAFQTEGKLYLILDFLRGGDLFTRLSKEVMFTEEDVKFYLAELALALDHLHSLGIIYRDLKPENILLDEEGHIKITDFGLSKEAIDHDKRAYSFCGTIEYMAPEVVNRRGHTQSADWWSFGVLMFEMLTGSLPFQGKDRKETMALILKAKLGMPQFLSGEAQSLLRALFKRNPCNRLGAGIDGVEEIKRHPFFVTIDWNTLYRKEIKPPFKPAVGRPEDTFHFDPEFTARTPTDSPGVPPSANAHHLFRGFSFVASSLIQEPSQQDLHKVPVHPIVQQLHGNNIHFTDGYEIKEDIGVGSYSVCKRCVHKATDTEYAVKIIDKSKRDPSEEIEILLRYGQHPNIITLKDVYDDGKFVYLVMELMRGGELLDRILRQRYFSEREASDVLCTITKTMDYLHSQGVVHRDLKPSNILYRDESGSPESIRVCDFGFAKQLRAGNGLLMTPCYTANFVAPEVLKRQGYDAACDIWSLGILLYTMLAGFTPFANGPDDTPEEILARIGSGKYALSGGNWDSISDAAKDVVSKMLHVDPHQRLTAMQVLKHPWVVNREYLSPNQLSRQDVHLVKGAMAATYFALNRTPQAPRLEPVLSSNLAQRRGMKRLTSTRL

RPS6KA4 KD1 (human) = RPS6KA4 KD1 (human) (UniProt O75676)
RPS6KA5 KD1 (human) = RPS6KA5 KD1 (human) (UniProt O75582)
SRPK2 (human) = SRPK2 (human) (UniProt P78362)
STK24 (human) = STK24 (human) (UniProt Q9Y6E0)
STK24 (human), sequence (Q9Y6E0 whole entry, looked up): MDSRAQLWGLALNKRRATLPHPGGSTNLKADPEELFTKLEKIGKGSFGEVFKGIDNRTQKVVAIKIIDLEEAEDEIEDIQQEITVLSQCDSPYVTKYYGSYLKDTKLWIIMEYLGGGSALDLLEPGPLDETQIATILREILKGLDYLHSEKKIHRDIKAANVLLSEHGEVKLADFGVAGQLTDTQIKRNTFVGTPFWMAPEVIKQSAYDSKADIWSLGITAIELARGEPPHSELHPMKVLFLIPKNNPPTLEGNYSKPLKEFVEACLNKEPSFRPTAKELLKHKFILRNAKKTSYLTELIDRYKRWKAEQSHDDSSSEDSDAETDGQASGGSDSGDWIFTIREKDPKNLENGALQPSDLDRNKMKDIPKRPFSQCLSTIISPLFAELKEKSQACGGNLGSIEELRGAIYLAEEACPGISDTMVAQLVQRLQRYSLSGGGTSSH

STK32C (human) = STK32C (human) (UniProt Q86UX6)
STK4 (human) = STK4 (human) (UniProt Q13043)
TGFBR1 (human) = TGFBR1 (human) (UniProt P36897)
ULK2 (human) = ULK2 (human) (UniProt Q8IYT8)
ULK3 (human) = ULK3 (human) (UniProt Q6PHR2)

ABL2 (human), sequence (P42684 whole entry, looked up): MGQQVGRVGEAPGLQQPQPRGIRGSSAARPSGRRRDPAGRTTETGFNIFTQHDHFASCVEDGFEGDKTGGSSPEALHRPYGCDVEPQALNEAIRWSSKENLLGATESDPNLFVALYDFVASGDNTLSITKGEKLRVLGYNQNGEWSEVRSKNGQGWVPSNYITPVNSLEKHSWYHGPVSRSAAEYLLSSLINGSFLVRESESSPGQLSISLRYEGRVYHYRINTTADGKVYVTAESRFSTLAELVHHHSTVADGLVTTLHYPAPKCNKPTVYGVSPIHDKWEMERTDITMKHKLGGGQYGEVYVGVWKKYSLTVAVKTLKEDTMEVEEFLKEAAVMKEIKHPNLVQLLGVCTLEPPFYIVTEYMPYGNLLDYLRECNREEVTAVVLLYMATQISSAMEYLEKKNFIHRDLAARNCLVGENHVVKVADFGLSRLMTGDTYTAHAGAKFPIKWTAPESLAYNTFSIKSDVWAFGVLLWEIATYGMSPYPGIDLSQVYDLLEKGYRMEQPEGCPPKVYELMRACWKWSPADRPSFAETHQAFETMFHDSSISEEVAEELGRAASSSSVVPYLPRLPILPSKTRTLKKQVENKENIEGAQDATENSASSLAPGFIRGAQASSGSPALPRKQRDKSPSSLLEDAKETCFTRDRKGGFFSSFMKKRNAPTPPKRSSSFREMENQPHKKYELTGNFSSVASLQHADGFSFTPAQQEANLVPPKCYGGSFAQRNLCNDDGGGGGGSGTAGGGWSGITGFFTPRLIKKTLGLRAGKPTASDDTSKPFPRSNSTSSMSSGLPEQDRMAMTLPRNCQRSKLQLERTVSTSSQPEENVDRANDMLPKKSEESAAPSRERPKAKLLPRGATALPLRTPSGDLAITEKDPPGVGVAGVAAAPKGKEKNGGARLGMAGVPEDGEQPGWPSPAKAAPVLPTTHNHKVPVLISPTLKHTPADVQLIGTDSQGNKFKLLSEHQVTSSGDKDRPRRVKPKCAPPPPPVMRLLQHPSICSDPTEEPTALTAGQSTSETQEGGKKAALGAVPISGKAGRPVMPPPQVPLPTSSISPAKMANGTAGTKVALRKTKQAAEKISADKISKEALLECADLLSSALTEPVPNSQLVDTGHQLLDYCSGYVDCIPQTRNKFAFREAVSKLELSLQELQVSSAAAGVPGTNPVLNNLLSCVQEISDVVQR

Q: Cc1cc([C@@H](C)Nc2ccccc2C(=O)O)c2nc(N3CCOCC3)cc(=O)n2c1 was tested. Which kinase still bound, per cent of control (ABL2 (human)) did it give?
A: 100%

Q: What about the kinase still bound, per cent of control (ACVR1B (human)) of the same compound?
A: 100%

Q: And the kinase still bound, per cent of control (ACVRL1 (human))?
A: 100%

Q: And the kinase still bound, per cent of control (ADCK3 (human))?
A: 70%

Q: What about the kinase still bound, per cent of control (BRSK1 (human)) of the same compound?
A: 100%

Q: What about the kinase still bound, per cent of control (CAMK2D (human)) of the same compound?
A: 100%

Q: And the kinase still bound, per cent of control (CDC42BPA (human))?
A: 100%

Q: And the kinase still bound, per cent of control (CDC42BPG (human))?
A: 99%

Q: And the kinase still bound, per cent of control (CDK18 (human))?
A: 83%

Q: And the kinase still bound, per cent of control (CSNK1A1 (human))?
A: 100%

Q: And the kinase still bound, per cent of control (CSNK1D (human))?
A: 57%

Q: And the kinase still bound, per cent of control (CSNK2A1 (human))?
A: 66%

Q: And the kinase still bound, per cent of control (DAPK2 (human))?
A: 74%

Q: And the kinase still bound, per cent of control (DDR1 (human))?
A: 81%

Q: What about the kinase still bound, per cent of control (FGFR3 (human)) of the same compound?
A: 100%

Q: And the kinase still bound, per cent of control [1]?
A: 100%

Q: And the kinase still bound, per cent of control (FGFR4 (human))?
A: 40%

Q: What about the kinase still bound, per cent of control (FLT3 (human)) of the same compound?
A: 4.2%

Q: And the kinase still bound, per cent of control (FYN (human))?
A: 41%

Q: What about the kinase still bound, per cent of control (GRK7 (human)) of the same compound?
A: 100%

Q: What about the kinase still bound, per cent of control (LYN (human)) of the same compound?
A: 89%

Q: What about the kinase still bound, per cent of control (MAP4K3 (human)) of the same compound?
A: 99%

Q: What about the kinase still bound, per cent of control (MELK (human)) of the same compound?
A: 100%

Q: And the kinase still bound, per cent of control (MKNK2 (human))?
A: 100%

Q: What about the kinase still bound, per cent of control (MUSK (human)) of the same compound?
A: 100%

Q: And the kinase still bound, per cent of control (MYO3A (human))?
A: 100%

Q: And the kinase still bound, per cent of control (NEK6 (human))?
A: 100%

Q: And the kinase still bound, per cent of control (PKN1 (human))?
A: 100%

Q: And the kinase still bound, per cent of control (PLK2 (human))?
A: 100%

Q: What about the kinase still bound, per cent of control (PRKAA2 (human)) of the same compound?
A: 91%

Q: And the kinase still bound, per cent of control (PRKACA (human))?
A: 100%

Q: What about the kinase still bound, per cent of control (RIPK2 (human)) of the same compound?
A: 52%

Q: And the kinase still bound, per cent of control (RPS6KA2 KD1 (human))?
A: 100%

Q: What about the kinase still bound, per cent of control (RPS6KA4 KD1 (human)) of the same compound?
A: 93%

Q: What about the kinase still bound, per cent of control (RPS6KA5 KD1 (human)) of the same compound?
A: 100%

Q: What about the kinase still bound, per cent of control (SRPK2 (human)) of the same compound?
A: 88%

Q: What about the kinase still bound, per cent of control (STK24 (human)) of the same compound?
A: 85%

Q: What about the kinase still bound, per cent of control (STK32C (human)) of the same compound?
A: 89%

Q: What about the kinase still bound, per cent of control (STK4 (human)) of the same compound?
A: 72%

Q: What about the kinase still bound, per cent of control (TGFBR1 (human)) of the same compound?
A: 100%

Q: What about the kinase still bound, per cent of control (ULK2 (human)) of the same compound?
A: 100%

Q: And the kinase still bound, per cent of control (ULK3 (human))?
A: 100%
